Target: T1, BRN2 (Homo sapiens, UniProt P20265)
T1 sequence (P20265 1-443): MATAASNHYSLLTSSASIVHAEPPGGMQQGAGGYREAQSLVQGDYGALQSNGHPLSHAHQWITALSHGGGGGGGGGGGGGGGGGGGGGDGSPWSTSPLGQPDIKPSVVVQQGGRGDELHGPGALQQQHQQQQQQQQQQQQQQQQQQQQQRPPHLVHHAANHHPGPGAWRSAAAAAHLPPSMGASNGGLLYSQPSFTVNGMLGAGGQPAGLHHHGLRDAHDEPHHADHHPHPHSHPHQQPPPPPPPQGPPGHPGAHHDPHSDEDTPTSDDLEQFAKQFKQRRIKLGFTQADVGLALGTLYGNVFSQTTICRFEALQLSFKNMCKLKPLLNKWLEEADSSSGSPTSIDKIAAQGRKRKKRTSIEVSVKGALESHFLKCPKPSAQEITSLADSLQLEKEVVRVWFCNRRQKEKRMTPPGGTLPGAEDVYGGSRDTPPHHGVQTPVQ
Experiment: Drug Affinity Responsive Target Stability (DARTS) assay
Type: binding
Set-up: endogenous in cells; host or cells: 42D^ENZR cells
Details: 42D^ENZR cell lysate, yes/no direct interaction with BRN2
Protocol: This in cell assay provides a yes/no answer to direct interaction between BRN2 inhibitor and protein. • i) Prepare and place the following on ice: • Pronase • TNC 10× • −500 mM Tris-HCl (pH 8.0) • −500 mM NaCl, 100 mM CaCl2 • DMSO • Drug • 10 mL NP40+Protease inhibitor+Phosphatase inhibitor solution (can store in 4° C. and use for up to 4 weeks): • −2 mL NP40 5× • −8 mL ddH2O • −1 PhosphoSTOP™ pill • −200 uL protease inhibitor 50×
2) Remove the growth medium from the cell plate (42D^ENZR) and add 10 mL of cold PBS/vanadate.
3) Scrape the cells. Remove the PBS-cell solution and add in a falcon tube.
4) Name a new 1.5 ml Eppendorf tube and put on ice to pre-chill.
5) Centrifuge the cells at 1500 for 5 minutes at 4° C. Remove supernatant and re-suspend the cells in 600 uL NP40 lysis buffer by pipetting up and down. If the cell pellet is small use less volume, for example 300 μl)
6) Transfer the lysing cells into the pre-chilled Eppendorf tube. Incubate on ice for 20 minutes. If not continuing the DARTS on the same day, you can put the lysate in −30 and work on it later.
7) Centrifuge the tube at maximum speed for 25-30 minutes at 4° C.
8) Discard the pellet (either transfer the supernatant in a new tube or just take out the pellet). […]
20) The samples are ready for Western blot gel running. […]

Compound	DARTS binding
FC(F)(F)c1ccc2cc(-c3csc(-c4ccco4)n3)oc2c1 [VPC-18-51, 2-(Furan-2-yl)-4-(6-(trifluoromethyl)benzofuran-2-yl)thiazole]	binding
Clc1cc2cc(-c3csc(-c4ccc[nH]4)n3)oc2cc1Cl [VPC-18-142]	binding

— US20220106304A1, “Transcription Factor BRN2 Inhibitory Compounds as Therapeutics and Methods for Their Use” (The University of British Columbia, priority 2018, published 2022)
